# Assay results taken from publication PMC10613275 (Scientific Reports, 2023).
# Entries after “also recorded” stand apart in the source; their conditions may differ. Read-outs that look alike come from different tables or passages of the source.
# Tests used:
# [1] = test system: S. typhimurium and E. coli, CHO and Chinese hamster V79 cells; conditions: cited from earlier work
# [2] = set-up: method as in PMID 24239523; conditions: concentrations up to 500 μM ref 5; cited from earlier work
# Salmonella strains = conditions: up to 5000 µg/plate with or without metabolic activation ref 4; cited from earlier work
# [3] = set-up: method as in earlier work; conditions: guinea pigs, 1% p-BMHCA in ethanol, 120 µg substance/cm^2, 16 h ref 4; cited from earlier work
# Caco-2 cells = experiment: Intestinal absorption, Caco-2 intestinal barrier model in vitro; assay type: in vitro ADME, human; conditions: lilial 1 mM, 4 h
# [4] = as above; assay type: in vitro ADME, human; conditions: human
# [5] = Cytotoxicity, cell viability (resazurin assay), HeLa9903; assay type: cell-based, human; conditions: human, HeLa9903 cells, all concentrations up to 100 µM, vs vehicle control, read-out: Relative viability
# HeLa9903 cells = experiment: as above; assay type: cell-based, human; conditions: 1 nm–100 µM, 1 day
# rats = test system: rats; set-up: method as in PMID 32461162; conditions: parental rats F0 and F1 in vivo ref 3; cited from earlier work
# [6] = set-up: method as in earlier work; conditions: rat, 1% p-BMHCA in ethanol, 120 µg substance/cm^2, 16 h ref 4; cited from earlier work
# RPTEC/TERT1 cells = experiment: Nephrotoxicity, RT-qPCR of kidney damage biomarkers; assay type: cell-based, human; conditions: up to 100 µM
# Description: RPTEC/TERT1 cells were seeded at a concentration of 2 × 10^5 cells/ml in ProxUp2 medium into 60 mm Petri dishes. After 24 h, the cells were washed with PBS and […] metabolites (100 μM) were applied in fresh ProxUp2 medium. The cells were incubated with samples for 48 h, after which the cells were washed with PBS and dishes were frozen in - 160 °C. The RNA was isolated using RNeasy Plus Mini Kit (Qiagen, Hilden, Germany). The RNA concentration and purity was determined with NanoDrop One (ThermoFisher Scientific) spectrophotometr. The cDNA synthesis was performed from 0.1 μg of total RNA with an iScript Reverse Transcription Supermix (Bio-Rad, Hercules, California, USA). Quantitative real-time PCR (qPCR) was performed using the qPCR Bio-Rad C100 Touch System (Bio-Rad) with a 96-well block. The reaction mixture consisted of 1 μl of specific 20 × PrimePCR Assay (Bio-Rad), 10 μl of 2 × SsoAdvance Universal Supermix (Bio-Rad), 2 μl of cDNA sample, 7 μl of nuclease-free water. The final reaction volume was 20 μl. […] Cycling parameters were: initial denaturation at 95 °C for 2 min, followed by 40 cycles of 95 °C for 5 s and 60 °C for 30 s. Fluorescence values were acquired after each extension phase. Samples were analyzed in triplicate, and samples with a standard deviation of duplicates > 0.2 Ct were re-analyzed. A non-template control containing nuclease-free water instead of cDNA as well as non-RT control containing purified RNA without reverse transcription was used. The real-time PCR study followed the MIQE guidelines. Relative transcript levels of the estimated genes in the cell lines were compared using the software CFX Maestro Software 2.3 (Bio-Rad).
# HepG2 cells = conditions: HepG2, 100 µM ref 2; cited from earlier work
# dogs = conditions: dog, in vivo; cited from earlier work
# CHO-K1 cells (hprt gene) = experiment: CHO/HPRT mutation assay; assay type: cell-based, Chinese hamster; conditions: for Mutagenicity result: 50 µM without, 500 µM with metabolic activation
# Description: The test with metabolic activation was performed as described in the OECD protocol, the ASTM standard[23] and other protocols[30],[31] and publications. For the test, cryopreserved CHO-K1 cells after the mutant cleansing were used. Mutant cleansing was performed according to[30], i.e. cells were cultivated three days in HAT medium, one day in HT medium and then frozen.
# One passage after the thawing, 1 × 10^6 cells were seeded in 60 mm cultivation plates as described in[32]. […] The final concentration of the solvent, DMSO, was 1%. […] EMS at final concentration 2 mM as recommended in[31] served as a positive control. 3-MC at final concentration […][22] served as a positive control for metabolic activation. 1% DMSO was used as a VC. Sole cultivation medium served as a negative control (NC). After 4 h, the medium with tested substances was removed, plates were washed with PBS and fresh medium with 10% FBS was added.
# During the expression period (1 week), the cells on all 60 mm plates were passaged once. On day 8, cells were trypsinized, resuspended, counted and 2 × 10^5 cells of each plate were seeded on 60 mm plates in triplicates in the presence of a selective agents, 6-TG (30 µM) as described in[32]. […] 300 cells without the selective agent were seeded in a parallel to evaluate plating efficiency (PE). On day 15, the plates were washed with PBS, cells were fixed with ice cold methanol for 10 min and stained with 0.05% crystal violet in water for 30 min[33]. After washing with water, formed colonies were counted using Schuett Count (Schuett-biotec, Göttingen, Germany). Calculations were done as described in[29]. PE was calculated according to a general Eq. 1. Particular PE at selective conditions was calculated according to Eq. 2. Particular PE at non-selective conditions was calculated according to Eq. 3. Mutation frequency (MF) was calculated according to Eq. 4.1 PE=numberofcoloniesformed/numberofcellsplated 2 PEselective=numberofmutantcoloniesNMC/200,000 3 PEnon-selective=numberofcoloniesformed/300 4 MF=PEselectiveconditions/PEnon-selectiveconditions
# MCF7 cells = conditions: MCF7 ref 2; cited from earlier work
# mouse lymphoma cells = test system: mouse lymphoma cells; set-up: method as in earlier work; conditions: cited from earlier work
smiles,measurement,setting,value
"CC(C=O)Cc1ccc(C(C)(C)C)cc1 (stereo not drawn) [Lilial, 3-(4-(tert-butyl)phenyl)-2-methylpropanal]",Genotoxic and mutagenic potential,[1],No genotoxic and mutagenic potential
same,Genotoxicity at the chromosomal level (clastogenicity or aneuploidy) or single-strand breaks,[2],did not induce genotoxicity
same,"Mutagenic activity, Ames test",Salmonella strains,"increased number of revertant colonies were detected only for the Salmonella strain TA1535, but it was not reproducible"
same,In vitro dermal absorption,[3],25.7%
same,Lilial (%) in Caco-2 cells,Caco-2 cells,13.1 ± 5.2%
same,Lilial (%) in apical medium,Caco-2 cells,32.3 ± 2.0%
same,Lilial (%) in basolateral medium,Caco-2 cells,34.1 ± 3.4%
same,Recovery,Caco-2 cells; all compartments,79.5%
same,"recovery at 4 h, 1 mM","[4]; Caco-2, lilial 1 mM, 4 h, all compartments",~80%
same,"Papp at 4 h, 1 mM","[4]; Caco-2, read-out: Papp (apparent permeability coefficient)",210 nm/s
same,viability at 1 day,[5],> 80%
same,Cytotoxicity result,HeLa9903 cells,Non toxic up to 100 µM
same,Effects on fertility and reproductive performance,rats,no adverse effects
same,In vitro dermal absorption,[6],78.4%
same,Nephrotoxicity result,RPTEC/TERT1 cells,Non nephrotoxic
same,Nephrotoxicity result,RPTEC/TERT1 cells; listed as lilial,"not toxic; also recorded: neither lilial, nor its metabolites, demonstrated nephrotoxic activity"
same,Decrease in cell viability,HepG2 cells,23%
same,"Oral dose that reduced body weight, gave clinical and systemic toxicity",dogs,≥ 200 mg/kg/day
same,Mutagenicity result,CHO-K1 cells (hprt gene),Non mutagenic
same,Mutagenicity result,CHO-K1 cells (hprt gene); listed as lilial,not mutagenic
same,MF (/10^6) mutation frequency,"CHO-K1 cells (hprt gene); Table 3, without activation, lilial 50 µM, EMS 240 µg/ml (2 mM), 4 h",9 ± 4 /10^6
same,NMC (number of mutant colonies),"CHO-K1 cells (hprt gene); Table 4, With S9, lilial 500 µM, 3MC 2 µg/ml",1 ± 1
same,Effect on cell viability,MCF7 cells,no negative effect
same,Mouse lymphoma assay outcome,mouse lymphoma cells,negative outcome
